In patent US20190062277A1, “FARNESOID X RECEPTOR AGONISTS AND USES THEREOF” (Metacrine, Inc., priority 2015, published 2019):

Columns and labels:
FXR [1] = target: T1, FXR (Homo sapiens, UniProt Q96RI1); assay: In Vitro FXR Assay (TK), luciferase reporter in transfected CV-1 cells; type: cell-based; parameters: expressed in transfected cells; host or cells: CV-1 cells; conditions: CV-1 cells transfected with hFXR, hRXR, TK-ECRE-luc; 18 hrs incubation; luminescence; maximum efficacy <25% of Fexaramine control also classified '+'
T1 sequence (Q96RI1 1-486): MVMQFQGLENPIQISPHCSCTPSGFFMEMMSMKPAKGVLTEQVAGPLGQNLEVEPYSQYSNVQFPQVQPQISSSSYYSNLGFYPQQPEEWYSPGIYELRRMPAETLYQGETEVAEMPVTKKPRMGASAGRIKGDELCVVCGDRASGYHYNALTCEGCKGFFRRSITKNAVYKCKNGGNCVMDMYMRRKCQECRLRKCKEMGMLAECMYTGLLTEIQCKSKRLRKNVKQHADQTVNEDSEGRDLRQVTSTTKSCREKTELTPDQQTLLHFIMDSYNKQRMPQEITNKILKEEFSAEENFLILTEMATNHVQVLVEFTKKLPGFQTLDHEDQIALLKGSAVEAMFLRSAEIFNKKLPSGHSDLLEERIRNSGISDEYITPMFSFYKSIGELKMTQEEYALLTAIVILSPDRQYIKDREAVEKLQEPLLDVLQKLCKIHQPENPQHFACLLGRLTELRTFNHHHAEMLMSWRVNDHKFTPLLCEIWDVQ
T1 sequence (P19793 1-462 partner): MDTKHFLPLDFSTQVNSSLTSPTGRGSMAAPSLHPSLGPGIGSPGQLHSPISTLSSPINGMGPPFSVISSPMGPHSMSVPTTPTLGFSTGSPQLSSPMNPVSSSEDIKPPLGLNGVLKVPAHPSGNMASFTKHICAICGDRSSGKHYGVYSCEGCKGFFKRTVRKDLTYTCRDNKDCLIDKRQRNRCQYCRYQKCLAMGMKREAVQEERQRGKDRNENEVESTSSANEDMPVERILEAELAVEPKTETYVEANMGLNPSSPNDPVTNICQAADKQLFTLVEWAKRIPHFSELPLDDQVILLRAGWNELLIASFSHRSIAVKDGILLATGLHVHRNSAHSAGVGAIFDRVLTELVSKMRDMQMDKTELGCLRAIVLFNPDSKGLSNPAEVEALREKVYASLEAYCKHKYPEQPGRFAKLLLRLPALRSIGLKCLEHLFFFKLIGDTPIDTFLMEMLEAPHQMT
Description: Example B-2: In Vitro FXR Assay (TK)
CV-1 cells were seeded at a density of 2,000,000 cells in a T175 flask with DMEM+10% charcoal double-stripped FBS and incubated at 37° C. in 5% CO2 for 18 h (0/N).
After 18 h of incubation, the medium in the T175 flask was changed with fresh DMEM+10% charcoal super-stripped serum. In a polypropylene tube, 2500 μL OptiMEM (Life Technologies, Cat #31985-062) was combined with expression plasmids for hFXR, hRXR, TK-ECRE-luc and pCMX-YFP. The tube was then briefly vortexed and incubated at room temperature for 5 minutes. Transfection reagent (X-tremeGENE HP from Roche, Cat #06 366 236 001) was added to the OptiMEM/plasmid mixture vortexed and incubated at room temperature for 20 minutes. Following incubation, the transfection reagent/DNA mixture complex was added to cells in the T175 flask and the cells were incubated at 37° C. in 5% CO2 for 18 h (O/N).
Compounds were serially diluted in DMSO and added to transfected CV-1 cells. The cells were then incubated for 18 hrs. The next day cells were lysed and examined for luminescence.

FXR [2] = target: T1, FXR; assay: In Vitro FXR Assay (PGL3), luciferase reporter in transfected CV-1 cells; type: cell-based; parameters: plasmids XPD90Gal pCMXhFXRfl, pCMXhRXRfl+PGL3-ECRE*6-luc+CMX-YFP; expressed in transfected cells; host or cells: CV-1 cells; conditions: CV-1 cells transfected with hFXR, hRXR, PGL3-ECRE*6-luc; 18 hrs incubation; luminescence
Description: Example B-1: In Vitro FXR Assay (PGL3)
CV-1 cells were seeded at a density of 2,000,000 cells in a T175 flask with DMEM+10% charcoal double-stripped FBS and incubated at 37° C. in a 5% CO2 for 18 h (0/N).
After 18 h of incubation, the medium in the T175 flask was changed with fresh DMEM+10% charcoal super-stripped serum.
To prepare the transfection reaction mixture, the transfection reagent (X-tremeGENE HP from Roche, Cat #06 366 236 001) was added in to a 1.5 mL microcentrifuge tube labelled “A” at a ratio of 1:3 (DNA in μg: transfection reagent in μL). OptiMEM medium (Life Technologies, Cat #31985-062) was added accordingly to provide a total volume of 1 mL. The transfection reaction mixture was then briefly vortexed and incubated at room temperature for 5 minutes.
In a separate 1.5 mL microcentrifuge tube labelled “B”, 100 μL OptiMEM and plasmids XPD90Gal pCMXhFXRfl, pCMXhRXRfl+PGL3-ECRE*6-luc+CMX-YFP in the ratio 2 μg: 2 μg:18 μg:3 μg were added. This microcentrifuge tube “B” was then briefly vortexed and incubated at room temperature for 5 minutes.
The total volume in tube labelled “A” was then transferred in to tube labelled “B.” The mixture was then briefly vortexed and the transfection:DNA complex was then incubated for about 15-20 minutes at room temperature.
Following incubation, the transfection reagent/DNA mixture complex was then added to cells in the T175 flask and the cells were incubated at […] (0/N) at 37° C. in 5% CO2.
In a 96 well plate, a half logarithmic serial dilution was prepared. OptiMEM was used as the diluent. Using any of one of the compounds described herein, a compound stock solution of 10 mM was prepared. An initial 1:100 dilution was made into the first well for a final concentration of 100 μM. The final concentrations in the 96-well plate was prepared by using a multichannel pipette to transfer 5 μL of the diluted compound to 384-well plate in quadruplicate.
Cells in T175 flask were trypsinized and cells were resuspending in 40 mL phenol red free DMEM+10% charcoal super-stripped FBS. Typically, one T175 flask was sufficient to seed two 384 well plates. CV-1 cells were seeded at 45 μL cell suspension/well using a multi-channel pipet or a 384 multidrop dispenser. The cells were then incubated for 18 hrs, overnight.
After removing the plates from the incubator, the medium was flicked out of plate and 384 well plate was turned upside down onto paper towel. The remaining medium was gently tapped out. 15 μL lysis buffer was then added to each well using a multichannel pipet or a 384 well multi-drop dispenser. After incubation for 10 minutes at room temperature on shaker, 30 μL Luciferase buffer was added to each well. Luminescence counts were taken immediately using the Perkin Elmer Envision.
The ability of the compounds disclosed herein to […] FXR activity was quantified and the respective EC50 value was determined. Fex=fexaramine.

EC50 (FXR [1]): ≤ 1 µM | Cmpd/Fex (ratio of the EC50 for the test compound relative to the EC50 of the Fexaramine control) (FXR [2]): +++ (‘+++’ means Cmpd/Fex <10)
Structure (SMILES): COC(=O)/C=C/c1cccc(N(CC2CCC(c3ccc(Cl)cc3)CC2)C(=O)C2CCCCC2)c1 (centres unmarked) [Compound 7, (E)-Methyl 3-(3-(N-((4-(4-chlorophenyl)cyclohexyl)methyl)cyclohexanecarboxamido)phenyl)acrylate]
